# Assay results: patent US11623919B2, “Heterocyclic P2X7 antagonists” (AXXAM S.P.A., priority 2017, dated 2023)
# Experiments:
# Assay type in all cases: cell-based
# P2X7 receptor [1] = biological target: T1, P2X7 receptor (Homo sapiens, UniProt Q99572); assay: Automated patch-clamp (QPatch16X) P2X7 channel assay; parameters: expressed in transfected cells; host or cells: HEK-293; details: HEK-293 cells expressing P2X7 channels; whole-cell, held at -80 mV; 100 microM BzATP; compound 1, 10, 100 and 1000 nM; read-out: Q-Patch (IC50)
# T1 sequence (Q99572 1-595): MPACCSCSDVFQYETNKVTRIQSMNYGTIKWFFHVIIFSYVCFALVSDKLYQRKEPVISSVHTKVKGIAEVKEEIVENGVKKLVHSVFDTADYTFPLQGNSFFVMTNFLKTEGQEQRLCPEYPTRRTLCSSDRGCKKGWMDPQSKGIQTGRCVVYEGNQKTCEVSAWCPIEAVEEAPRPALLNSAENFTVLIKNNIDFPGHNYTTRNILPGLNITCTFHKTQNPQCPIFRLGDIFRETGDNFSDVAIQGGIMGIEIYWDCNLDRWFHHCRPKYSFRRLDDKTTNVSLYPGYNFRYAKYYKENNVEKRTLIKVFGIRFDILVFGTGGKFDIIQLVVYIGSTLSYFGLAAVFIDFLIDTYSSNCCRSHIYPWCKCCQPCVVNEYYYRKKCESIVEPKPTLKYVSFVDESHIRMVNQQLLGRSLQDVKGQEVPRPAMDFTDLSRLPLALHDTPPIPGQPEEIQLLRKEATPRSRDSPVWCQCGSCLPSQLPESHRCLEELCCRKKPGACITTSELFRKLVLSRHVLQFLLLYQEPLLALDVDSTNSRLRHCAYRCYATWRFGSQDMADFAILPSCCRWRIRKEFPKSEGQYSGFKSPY
# Experimental: In order to directly monitor the block of P2X7 channel, an electrophysiological assay was developed and implemented on the QPatch16X automated electrophysiology instrument.
# HEK-293 cells expressing the P2X7 channels were cultured in modified EMEM.
# 72 hours before experiment, 5 million cells were seeded onto T225 flasks. Just before the experiment cells were washed twice, detached from the flask with trypsin-EDTA, re-suspended in the suspension solution and placed on the QPatch 16x.
# The compounds (20 mM in a 100% DMSO) stored at −20° C. were prepared the day of the experiment (a first dilution 1:20 in 100% DMSO to prepare a 1 mM stock solution, then a 1 microM solution in external solution+a serial dilution 1:10).
# The standard whole-cell voltage clamp experiments were performed at room temperature. From these experiments the multihole technology was used and the data were sampled at 2 KHz.
# The intracellular solution contained (mM) 135 CsF, 10 NaCl, 1 EGTA, 10 HEPES, (pH 7.2 with CsOH) whereas the extracellular contained (mM) 145 NaCl, 4 KCl, 0.5 MgCl2, 1 CaCl2, 10 HEPES, 10 Glc (pH 7.4 with NaOH).
# After establishment of the seal and the passage in the whole cell configuration, the cells were held at −80 mV. The P2XR7 current was evoked by applying 100 microM of BzATP alone (4 times) and then in the presence increasing concentrations of the compound under investigation (1, 10, 100 and 1000 nM).
# The pre-incubation periods 5 to 8 contain increasing concentrations of the compound of interest (1, 10, 100 and 1000 nM), as illustrated in FIGURE (application protocol).
# The maximal inward current evoked by BzATP in absence or presence of increasing concentrations of the compounds under investigation was measured and normalized. The potential […] effect was measured as % of control and as IC50 determined fitting the dose-response curves data with the following equation: Y=100/(1+10^((Log IC50−X)*HillSlope))
# P2X7 receptor [2] = biological target: T1, P2X7 receptor; assay: Screen Quest Fluo-8 No Wash Calcium Assay (Bz-ATP evoked Ca2+ influx, FLIPR); parameters: hP2X7 (IC50; nM); other: hP2X7; HEK-293 cells stably transfected with P2X7 receptor, Bz-ATP at EC80, Fluo-8 NW; potency; details: hP2X7; HEK-293 cells stably transfected with P2X7 receptor, Bz-ATP at EC80, Fluo-8 NW; potency ranges A-D
# How it was run: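 HEK-293 cells stably expressing P2X7 were loaded with Fluo-8 NW for 1 h at RT, then given compound, and 5 min later Bz-ATP at EC80. Fluorescence was read by FLIPR in low divalent cation buffer (0.3 mM Ca2+, 0 mM Mg2+). IC50 came from percent inhibition relative to reference antagonist A438079.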
# P2X7 receptor [3] = biological target: T1, P2X7 receptor; assay: YO-PRO-1 uptake assay; parameters: expressed in transfected cells; details: HEK-293 cells stably transfected with P2X7 receptor; Bz-ATP EC80 (30 μM); Low Divalent Cation Assay Buffer
# From the text: YO-PRO®-1 is a fluorescent DNA-binding dye with a MW of 374 Da (Molecular Probes®, cat. Y3603). This method is based upon the presumed ability of YO-PRO®-1 to enter through the dilated or “large pore form” of P2X7 receptor and to bind to intracellular DNA whereupon it increases many fold its fluorescence intensity. The dye ha an absorption spectrum compatible with excitation at 488 nm by argon laser sources and its emission wavelength is in the range of 515-575 nm. The aim of this assay was to validate the interaction of antagonists with P2X7 receptor using an alternative readout to Ca2+-sensitive fluorescent dyes.
# HEK-293 cells stably transfected with P2X7 receptor were seeded overnight un growth medium at 20,000 cell/well in 384-well plate. 24 hours later, the medium was removed, the cells were washed with Low Divalent Cation Assay Buffer (0.3 mM Ca^2+ and 0 mM Mg^2+) and then pre-loaded with 20 μL/w of 5 μM YO-PRO®-1 dye.
# FLIPRTETRA fluorescence measurement immediately started. Then 10 μL/w of test compounds and reference antagonist A438079 at 3×-concentration were injected with the FLIPRTETRA and the kinetic response over a period of five minutes was monitored. A second injection of 10 μL/w of 3× Bz-ATP EC80 (30 μM) was performed with the FLIPRTETRA and the signal of the emitted fluorescence was recorded for additional 60 minutes. All the experiment was carried out with a Low Divalent Cation Assay Buffer (0.3 mM Ca^2+ and 0 mM Mg^2+).
# The effect of the test compounds was measured as percent inhibition vs the reference antagonist and IC50 values were calculated accordingly.
IC50 (P2X7 receptor [1]) [µM],IC50 (P2X7 receptor [2]) [nM],IC50 (P2X7 receptor [3]) [nM],Compound
0.0452,< 200,115,"O=c1onc(Cc2c(F)cccc2Cl)n1CC1CCC(F)(F)C1 (racemic) [Example 128, 3-[(2-chloro-6-fluorophenyl)methyl]-4-[(3,3-difluorocyclopentyl)methyl]-4,5-dihydro-1,2,4-oxadiazol-5-one]"
0.0686,< 200,66,"O=c1onc(Cc2c(F)cccc2Cl)n1CC1CCC(F)(F)C1 (single isomer, unassigned) [Example 149, 3-(2-chloro-6-fluorobenzyl)-4-[(3,3-difluorocyclopentyl)methyl]-1,2,4-oxadiazol-5(4H)-one]"
0.247,200 to 1000,581,"O=c1onc(Cc2ccc(F)cc2)n1Cc1c(F)cccc1Cl [Example 1, 4-[(2-chloro-6-fluorophenyl)methyl]-3-[(4-fluorophenyl)methyl]-4,5-dihydro-1,2,4-oxadiazol-5-one]"
0.0511,< 200,115,"Cc1cc(F)ccc1Cn1c(Cc2c(F)cccc2Cl)noc1=O [Example 25, 3-[(2-chloro-6-fluorophenyl)methyl]-4-[(4-fluoro-2-methylphenyl)methyl]-4,5-dihydro-1,2,4-oxadiazol-5-one]"
0.182,200 to 1000,329,"O=c1onc(Cc2c(F)cccc2Cl)n1Cc1cccc(F)c1 [Example 26, 3-[(2-chloro-6-fluorophenyl)methyl]-4-[(3-fluorophenyl)methyl]-4,5-dihydro-1,2,4-oxadiazol-5-one]"
0.386,200 to 1000,340,"CC(c1ccc(F)cc1)n1c(Cc2c(F)cccc2Cl)noc1=O (stereo not drawn) [Example 48, 3-[(2-chloro-6-fluorophenyl)methyl]-4-[1-(4-fluorophenyl)ethyl]-4,5-dihydro-1,2,4-oxadiazol-5-one]"
0.0338,200 to 1000,50,"O=c1onc(Cc2c(F)cccc2Cl)n1Cc1ccc(F)cc1 [Example 55, 3-[(2-chloro-6-fluorophenyl)methyl]-4-[(4-fluorophenyl)methyl]-4,5-dihydro-1,2,4-oxadiazol-5-one]"
0.623,200 to 1000,366,"O=c1onc(Cc2c(F)cccc2Cl)n1Cc1ccc(F)cc1Cl [Example 60, 4-[(2-chloro-4-fluorophenyl)methyl]-3-[(2-chloro-6-fluorophenyl)methyl]-4,5-dihydro-1,2,4-oxadiazol-5-one]"
0.149,200 to 1000,293,"O=c1onc(Cc2c(F)cccc2Cl)n1Cc1ccc(F)cc1F [Example 61, 3-[(2-chloro-6-fluorophenyl)methyl]-4-[(2,4-difluorophenyl)methyl]-4,5-dihydro-1,2,4-oxadiazol-5-one]"
0.348,200 to 1000,318,"O=c1onc(Cc2c(F)cccc2Cl)n1Cc1ccc(Cl)cc1 [Example 65, 3-[(2-chloro-6-fluorophenyl)methyl]-4-[(4-chlorophenyl)methyl]-4,5-dihydro-1,2,4-oxadiazol-5-one]"
1.5,200 to 1000,456,"O=c1onc(Cc2c(F)cccc2Cl)n1Cc1ccc(C(F)(F)F)o1 [Example 66, 3-[(2-chloro-6-fluorophenyl)methyl]-4-{[5-(trifluoromethyl)furan-2-yl]methyl}-4,5-dihydro-1,2,4-oxadiazol-5-one]"
1.16,200 to 1000,461,"O=c1onc(Cc2cccc(Cl)c2Cl)n1Cc1ccc(F)cc1 [Example 71, 3-[(2,3-dichlorophenyl)methyl]-4-[(4-fluorophenyl)methyl]-4,5-dihydro-1,2,4-oxadiazol-5-one]"
0.423,200 to 1000,670,"O=c1onc(Cc2ccc(F)cc2Cl)n1Cc1ccc(F)cc1 [Example 73, 3-[(2-chloro-4-fluorophenyl)methyl]-4-[(4-fluorophenyl)methyl]-4,5-dihydro-1,2,4-oxadiazol-5-one]"
0.401,200 to 1000,168,"O=c1onc(Cc2ccccc2Cl)n1Cc1ccc(F)cc1 [Example 76, 3-[(2-chlorophenyl)methyl]-4-[(4-fluorophenyl)methyl]-4,5-dihydro-1,2,4-oxadiazol-5-one]"
0.292,200 to 1000,619,"O=c1onc(Cc2cccc(F)c2)n1Cc1c(F)cccc1Cl [Example 81, 4-[(2-chloro-6-fluorophenyl)methyl]-3-[(3-fluorophenyl)methyl]-4,5-dihydro-1,2,4-oxadiazol-5-one]"
0.0214,< 200,30,"O=c1onc(Cc2c(F)cccc2Cl)n1CC1CCCCC1 [Example 82, 3-[(2-chloro-6-fluorophenyl)methyl]-4-(cyclohexylmethyl)-4,5-dihydro-1,2,4-oxadiazol-5-one]"
0.00843,< 200,3.4,"O=c1onc(Cc2c(F)cccc2Cl)n1CC1CCC(F)(F)CC1 [Example 84, 3-[(2-chloro-6-fluorophenyl)methyl]-4-[(4,4-difluorocyclohexyl)methyl]-4,5-dihydro-1,2,4-oxadiazol-5-one]"
0.167,< 200,131,"O=c1onc(Cc2c(F)cccc2Cl)n1CC1CCCC1 [Example 85, 3-[(2-chloro-6-fluorophenyl)methyl]-4-(cyclopentylmethyl)-4,5-dihydro-1,2,4-oxadiazol-5-one]"
0.154,200 to 1000,111,"CC1(C)CCC(Cn2c(Cc3c(F)cccc3Cl)noc2=O)CC1 [Example 86, 3-[(2-chloro-6-fluorophenyl)methyl]-4-[(4,4-dimethylcyclohexyl)methyl]-4,5-dihydro-1,2,4-oxadiazol-5-one]"
